A word on the pIC50: it is the IC50 on a negative log10 scale, so that one unit is a factor of ten.

Here are results for ten compounds from patent US9725445B2, “Cycloalkyl nitrile pyrazolo pyridones as Janus kinase inhibitors” (Merck Sharp & Dohme Corp., priority 2013, dated 2017).

The target of one assay is JAK2 (Homo sapiens (Human), UniProt O60674). Put plainly: Jak biochemical HTRF assay, JAK2. Conditions: HTRF biochemical assay, recombinant GST-tagged catalytic domain; read-out: JAK2 IC50.
Sequence of JAK2 (O60674 849-1124): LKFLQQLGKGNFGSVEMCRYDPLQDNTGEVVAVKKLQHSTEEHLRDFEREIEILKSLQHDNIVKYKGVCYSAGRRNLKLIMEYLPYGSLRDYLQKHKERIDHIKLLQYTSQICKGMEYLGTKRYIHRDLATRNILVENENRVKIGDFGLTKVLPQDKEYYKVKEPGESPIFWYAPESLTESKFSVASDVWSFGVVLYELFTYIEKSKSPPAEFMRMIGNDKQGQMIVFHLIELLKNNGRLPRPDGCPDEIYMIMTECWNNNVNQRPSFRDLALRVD
The target of a further assay is JAK1 (Homo sapiens (Human), UniProt P23458). The assay can be described thus: Jak biochemical HTRF assay, JAK1. Conditions: HTRF biochemical assay, recombinant GST-tagged catalytic domain; read-out: JAK1 IC50. Background: Time-resolved FRET reads energy transfer from a long-lived donor to a nearby acceptor.
Sequence of JAK1 (P23458 875-1153): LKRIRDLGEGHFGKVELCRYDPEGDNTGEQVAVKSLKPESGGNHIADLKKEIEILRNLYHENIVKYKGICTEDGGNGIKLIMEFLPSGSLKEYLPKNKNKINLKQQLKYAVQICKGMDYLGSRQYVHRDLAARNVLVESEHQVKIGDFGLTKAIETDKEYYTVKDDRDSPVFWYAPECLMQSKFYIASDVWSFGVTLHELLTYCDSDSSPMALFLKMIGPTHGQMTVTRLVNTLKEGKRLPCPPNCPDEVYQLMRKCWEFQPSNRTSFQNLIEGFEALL

pIC50: −log10 of the molar value.

Turning to `C[C@H](NC1CCC(n2nc(Nc3ccc(Cl)cc3)c3c(=O)[nH]ccc32)C(C#N)C1)C1CC1` (stereo in doubt) [Example 4-2, (1S,2S,5R)-2-(3-((4-Chlorophenyl)amino)-4-oxo-4,5-dihydro-1H-pyrazolo[4,3-c]pyridin-1-yl)-5-(((S)-1-cyclopropylethyl)amino)cyclohexanecarbonitrile], the values for the pIC50 on JAK2 and at JAK1 were below 5.82 and 7.08, respectively.
In the same order, the values of `C[C@H](NC1CCC(n2nc(Nc3ccc(Cl)cc3)c3c(=O)[nH]ccc32)C(C#N)C1)C1CC1` (stereo in doubt) [Example 4-3, (1R,2R,5R)-2-(3-((4-Chlorophenyl)amino)-4-oxo-4,5-dihydro-1H-pyrazolo[4,3-c]pyridin-1-yl)-5-(((S)-1-cyclopropylethyl)amino)cyclohexanecarbonitrile] are 7.89 and 9.52.
In the same order, the values of `C[C@H](NC1CCC(n2nc(Nc3ccc(Cl)cc3)c3c(=O)[nH]ccc32)C(C#N)C1)C1CC1` (stereo in doubt) [Example 4-4, (1S,2S,5S)-2-(3-((4-Chlorophenyl)amino)-4-oxo-4,5-dihydro-1H-pyrazolo[4,3-c]pyridin-1-yl)-5-(((S)-1-cyclopropylethyl)amino)cyclohexanecarbonitrile] are 6.28 and 8.11.
Take `N#C[C@@H]1CCCC[C@H]1n1nc(Nc2ccnc(F)c2)c2c(=O)[nH]ccc21` [Example 3-1, (1R,2R)-2-{3-[(2-Fluoropyridin-4-yl)amino]-4-oxo-4,5-dihydro-1H-pyrazolo[4,3-c]pyridin-1-yl}cyclohexanecarbonitrile]: the results for the pIC50 on JAK2 and on JAK1 were 7.01 and 7.74, respectively.
For `N#C[C@H]1CCCC[C@@H]1n1nc(Nc2ccnc(F)c2)c2c(=O)[nH]ccc21` [Example 3-2, (1S,2S)-2-{3-[(2-fluoropyridin-4-yl)amino]-4-oxo-4,5-dihydro-1H-pyrazolo[4,3-c]pyridin-1-yl}cyclohexanecarbonitrile], the pIC50 on JAK2 is 8.27; at JAK1, 9.40.
On the same counts, the results for `N#C[C@@H]1CCCC[C@H]1n1nc(Nc2ccc(CS(=O)(=O)N3CCCC3)cc2)c2c(=O)[nH]ccc21` [Example 3-3, (1R,2R)-2-(4-oxo-3-((4-((pyrrolidin-1-ylsulfonyl)methyl)phenyl)amino)-4,5-dihydro-1H-pyrazolo[4,3-c]pyridin-1-yl)cyclohexanecarbonitrile] are 7.68 and 8.21.
Consider `CS(=O)(=O)c1ccc(Nc2nn([C@@H]3CCCC[C@H]3C#N)c3cc[nH]c(=O)c23)cc1` [Example 3-4, (1R,2R)-2-(3-{[4-(methylsulfonyl)phenyl]amino}-4-oxo-4,5-dihydro-1H-pyrazolo[4,3-c]pyridin-1-yl)cyclohexanecarbonitrile], for which the pIC50 on JAK2 was 7.80; at JAK1, 8.03.
As for `CS(=O)(=O)c1ccc(Nc2nn([C@H]3CCCC[C@@H]3C#N)c3cc[nH]c(=O)c23)cc1` [Example 3-5, (1S,2S)-2-(3-{[4-(methylsulfonyl)phenyl]amino}-4-oxo-4,5-dihydro-1H-pyrazolo[4,3-c]pyridin-1-yl)cyclohexanecarbonitrile], the pIC50 at JAK2 is 9.08; at JAK1 it was 9.92.
On the same counts, the results for `CN(C)S(=O)(=O)c1ccc(Nc2nn([C@H]3CCCC[C@@H]3C#N)c3cc[nH]c(=O)c23)cc1` [Example 3-6, 4-({1-[(1S,2S)-2-cyanocyclohexyl]-4-oxo-4,5-dihydro-1H-pyrazolo[4,3-c]pyridin-3-yl}amino)-N,N-dimethylbenzenesulfonamide] are 9.48 and 9.96.
In the case of `N#C[C@H]1CCCC[C@@H]1n1nc(Nc2ccc(S(N)(=O)=O)cc2)c2c(=O)[nH]ccc21` [Example 3-7, 4-({1-[(1S,2S)-2-cyanocyclohexyl]-4-oxo-4,5-dihydro-1H-pyrazolo[4,3-c]pyridin-3-yl}amino)benzenesulfonamide], the figures for the pIC50 on JAK2 and at JAK1 were 9.07 and 9.96, respectively.
